Experiments:
Zoysiagrass = experiment: Turfgrass safety test (sod mat pots), visual phytotoxicity; assay type: in vivo, Zoysia japonica; conditions: in vivo
Excerpt: Commercially available sod mats of zoysiagrass and bentgrass, Kentucky bluegrass, and perennial ryegrass were purchased. After cutting each turf sod mat in a size of 10 cm×20 cm, it was transplanted to a rectangular plastic pot having a surface area of 300 cm^2 wherein mixed soils including blend of a bed soil (Boonong, Horticultural Nursery Soil No. 3) and sandy loam soil were filled (mixing ratio, 1:1). After transplanting, the grass was mowed (0.5˜1.0 cm in height) once a week, and kept for one month in a greenhouse maintained at 25˜30° C. (day) or 15˜25° C. (night), then the test substance of the present invention was applied at dosage of 4, 2, 1 and 0.5 kg/ha. As a reference, Dithiopyr (32% EC, manufactured by Dongbu Hannong Chemical Company, KOREA) was applied at the recommended rate of 0.48 kg/ha, or twice or quadruple amount thereof, i.e., 0.96 and 1.92 kg/ha, respectively. Spray was made by a track sprayer equipped with a Teejet 8002 nozzle. Spray volume was adjusted to 2,000 L/ha, which was a typical value for an Asian (Korea and Japan) golf course. The spray solution was prepared by dissolving the “test substance” in acetone and adding the same volume of 0.2% (v/v) Tween 20 aqueous solution. Two, four or six weeks after the spray of the test substance, phytotoxicity to the turfgrass were visually evaluated based on 0 to 10 scale (0: no phytotoxic effect, 10: completely killed). The test was conducted in a randomized block design with a three replicates and the results were summarized in the following Table 2 is an average value of the replicates.

Large crabgrass = experiment: Herbicidal activity at different growth stages, fresh weight suppression; assay type: in vivo; conditions: for Suppression ratio relative to the biomass of the untreated group: Large crabgrass 1 leaf / Suppression ratio relative to the biomass of the untreated group: Large crabgrass 2 leaf / Suppression ratio relative to the biomass of the untreated group: Large crabgrass 3 leaf / Suppression ratio relative to the biomass of the untreated group: Large crabgrass 4 leaf / Suppression ratio relative to the biomass of the untreated group: Large crabgrass PRE: fresh weight two weeks after treatment
Experimental: To a cup pot having a surface area of 100 cm^2 wherein mixed soils including blend bed soil (Boonong, Horticultural Bed Soil No. 3) and sandy loam soil were filled (mixing ratio, 1:1), seeds of large crabgrass and annual bluegrass were sown consecutively at an one week interval. The pots were moistened by sub-irrigation, and kept in a greenhouse maintained at 25˜30° C. (day) or 15˜25° C. (night). The said weeds were grown to various growth stages from pre-emergence to the four-leaf stage. Then, they were applied with the test substance of the present invention at dosage of 2, 1, 0.5, or 0.25 kg/ha. As a reference herbicide, Dithiopyr (32% EC, manufactured by Dongbu Hannong Chemical Company), was applied at 0.96, 0.48, or 0.24 kg/ha. Spray volume was adjusted to 2,000 L/ha. The method to spray of the test substance and prepare spray solutions were the same as described above. The reference herbicide was used after it was diluted with 0.2% (v/v) Tween 20 aqueous solution. The test was conducted in a randomized block design with three replicates. Two weeks after the treatment, plant parts remained above the pot soil surface were cut and the fresh weight was weighed. Results are given by a suppression ratio relative to the biomass that was obtained from the untreated group (see, Table 3).

turfgrasses = experiment: Example 3-1, turfgrasses as a group; assay type: in vivo; conditions: 2 kg/ha or below
Excerpt: Commercially available sod mats of zoysiagrass and bentgrass, Kentucky bluegrass, and perennial ryegrass were purchased. After cutting each turf sod mat in a size of 10 cm×20 cm, it was transplanted to a rectangular plastic pot having a surface area of 300 cm^2 wherein mixed soils including blend of a bed soil (Boonong, Horticultural Nursery Soil No. 3) and sandy loam soil were filled (mixing ratio, 1:1). After transplanting, the grass was mowed (0.5˜1.0 cm in height) once a week, and kept for one month in a greenhouse maintained at 25˜30° C. (day) or 15˜25° C. (night). Then three strips of 1 cm width were removed by excision with a scissor. The open space was filled with a new soil, and seeds of large crabgrass, annual bluegrass, or goosegrass were sown. The pots were kept in a greenhouse. When the said weeds were grown up to the 3 leaf stage, another set was prepared in the same method. The first set represented post-emergence (POST) and the second set represented pre-emergence (PRE) stages of the weeds (large crabgrass, annual bluegrass, goosegrass). Then the test compound was applied at 0.25, 0.5. 1.0, 2.0, and 4.0 kg/ha. […] Four weeks after the spray of the test substance, phytotoxicity to the turfgrass and herbicidal activity to the said weeds were visually evaluated based on 0 to 100 scale (0: no phytotoxic effect, 100: completely killed). […]

Cc1ccsc1C1=NOC(C)(COCc2c(F)cccc2F)C1 (stereo not drawn) [test substance, 5-(2,6-difluorobenzyl)oxymethyl-5-methyl-3-(4-methylthiophen-5-yl)-1,2-isoxazoline]
Phytotoxic effect, visual assessment: Zoysiagrass Week 6 (Zoysiagrass; Zoysia japonica (zoysiagrass), 6 weeks): 0.0 | Phytotoxic effect, visual assessment: Zoysiagrass Week 2 (Zoysiagrass): 2.7 | Phytotoxic effect, visual assessment: Zoysiagrass Week 4 (Zoysiagrass): 1.7 | Phytotoxic effect, visual assessment: Zoysiagrass Week 6 (Zoysiagrass): 1.0 | Phytotoxic effect, visual assessment: Zoysiagrass Week 2 (Zoysiagrass; zoysiagrass (Zoysia japonica), 2 weeks): 0.0 | Phytotoxic effect, visual assessment: Zoysiagrass Week 4 (Zoysiagrass; zoysiagrass (Zoysia japonica), 4 weeks): 0.0 | Phytotoxic effect, visual assessment: Zoysiagrass Week 6 (Zoysiagrass; zoysiagrass (Zoysia japonica), 6 weeks): 0.0 | Suppression ratio relative to the biomass of the untreated group: Large crabgrass 1 leaf (Large crabgrass; 1 kg/ha): 100% | Suppression ratio relative to the biomass of the untreated group: Large crabgrass 2 leaf (Large crabgrass; 1 kg/ha): 98% | Suppression ratio relative to the biomass of the untreated group: Large crabgrass 3 leaf (Large crabgrass; 1 kg/ha): 94% | Suppression ratio relative to the biomass of the untreated group: Large crabgrass 4 leaf (Large crabgrass; 1 kg/ha): 70% | Suppression ratio relative to the biomass of the untreated group: Large crabgrass PRE (Large crabgrass; 1 kg/ha): 100% | Suppression ratio relative to the biomass of the untreated group: Large crabgrass 1 leaf (Large crabgrass; 2 kg/ha): 100% | Suppression ratio relative to the biomass of the untreated group: Large crabgrass 2 leaf (Large crabgrass; 2 kg/ha): 98% | Suppression ratio relative to the biomass of the untreated group: Large crabgrass 3 leaf (Large crabgrass; 2 kg/ha): 97% | Suppression ratio relative to the biomass of the untreated group: Large crabgrass 4 leaf (Large crabgrass; 2 kg/ha): 76% | Suppression ratio relative to the biomass of the untreated group: Large crabgrass PRE (Large crabgrass; 2 kg/ha): 100% | Suppression of large crabgrass (Large crabgrass; 3-leaf stage, 1 kg/ha or more): ≥ 90% | Suppression ratio relative to the biomass of the untreated group: Large crabgrass 2 leaf (Large crabgrass; .12 kg/ha): 45% | Suppression ratio relative to the biomass of the untreated group: Large crabgrass 4 leaf (Large crabgrass; .12 kg/ha): 16% | Suppression ratio relative to the biomass of the untreated group: Large crabgrass 1 leaf (Large crabgrass; .25 kg/ha): 100% | Suppression ratio relative to the biomass of the untreated group: Large crabgrass 2 leaf (Large crabgrass; .25 kg/ha): 81% | Suppression ratio relative to the biomass of the untreated group: Large crabgrass 3 leaf (Large crabgrass; .25 kg/ha): 72% | Suppression ratio relative to the biomass of the untreated group: Large crabgrass 4 leaf (Large crabgrass; .25 kg/ha): 33% | Suppression ratio relative to the biomass of the untreated group: Large crabgrass PRE (Large crabgrass; .25 kg/ha): 100% | Suppression ratio relative to the biomass of the untreated group: Large crabgrass 1 leaf (Large crabgrass; .5 kg/ha): 100% | Suppression ratio relative to the biomass of the untreated group: Large crabgrass 2 leaf (Large crabgrass; .5 kg/ha): 93% | Suppression ratio relative to the biomass of the untreated group: Large crabgrass 3 leaf (Large crabgrass; .5 kg/ha): 86% | Suppression ratio relative to the biomass of the untreated group: Large crabgrass 4 leaf (Large crabgrass; .5 kg/ha): 65% | Suppression ratio relative to the biomass of the untreated group: Large crabgrass PRE (Large crabgrass; .5 kg/ha): 100% | Suppression of large crabgrass (Large crabgrass; PRE to 2-leaf stage, 0.5 kg/ha or above): ≥ 90% | Control of large crabgrass (in words) (Large crabgrass; over four-leaf stage): suppressed but were not completely controlled | Visible injury to turfgrasses (in words) (turfgrasses): did not show any visible injury
